# Assays:
# Human M4 = molecular target: T1, Human M4 (Homo sapiens, UniProt P08173); assay: M4 cell-based functional assay (calcium mobilization); parameters: expressed in transfected cells; settings: for Emax at 30 µM: % ACh maximum at 30 μM; for EC50: CHO-K1 hM4-Gqi5 cells, calcium flux, increase in EC20 acetylcholine response
# T1 sequence (P08173 1-479): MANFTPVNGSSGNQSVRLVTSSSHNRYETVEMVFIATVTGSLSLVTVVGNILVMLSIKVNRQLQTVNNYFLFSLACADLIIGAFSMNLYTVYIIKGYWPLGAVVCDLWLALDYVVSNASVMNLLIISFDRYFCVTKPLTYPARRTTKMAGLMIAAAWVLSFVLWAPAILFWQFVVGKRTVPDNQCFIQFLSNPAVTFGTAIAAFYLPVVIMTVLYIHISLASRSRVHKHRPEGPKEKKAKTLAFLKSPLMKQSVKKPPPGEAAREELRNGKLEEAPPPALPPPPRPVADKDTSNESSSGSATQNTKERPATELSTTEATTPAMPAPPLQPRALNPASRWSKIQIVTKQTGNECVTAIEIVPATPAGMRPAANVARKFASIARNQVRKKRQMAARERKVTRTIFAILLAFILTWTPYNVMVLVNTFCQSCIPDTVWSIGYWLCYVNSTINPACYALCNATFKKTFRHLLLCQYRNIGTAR
# Method in brief: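 CHO-K1 cells stably co-expressing hM4 and chimeric Gqi5, loaded with Fluo-4-AM (1.15 μM final, 45 min, 37° C). Compound added ~140 s before EC20 then EC80 acetylcholine; calcium flux by kinetic fluorescence (ex 480/em 530 nm), expressed as fold over basal and normalized to maximal ACh response (1 mM).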
# male Sprague-Dawley rats = assay: Amphetamine-induced hyperlocomotion in rats; settings: 10 mg/kg p.o., amphetamine 0.25 mg/kg s.c., p<0.001
Emax at 30 µM (Human M4) [%],EC50 (Human M4) [nM],SMILES,percent reversal of amphetamine-induced hyperlocomotion (male Sprague-Dawley rats) [%]
63,738,"Cc1cc2nccnc2nc1N1CCc2nc(C3CC3(C)C)sc2C1 (stereo not shown) [Compound 63, 2-(2,2-dimethylcyclopropyl)-5-(7-methylpyrido[2,3-b]pyrazin-6-yl)-4,5,6,7-tetrahydrothiazolo[5,4-c]pyridine]",–
76,119,"Cc1cc2nccnc2nc1N1CCc2nc(C(C)C)sc2C1 [Compound 64, 2-isopropyl-5-(7-methylpyrido[2,3-b]pyrazin-6-yl)-4,5,6,7-tetrahydrothiazolo[5,4-c]pyridine]",–
57,1890,"Cc1cc2nccnc2nc1N1CCc2nc(C(C)(C)C)sc2C1 [Compound 65, 2-(tert-butyl)-5-(7-methylpyrido[2,3-b]pyrazin-6-yl)-4,5,6,7-tetrahydrothiazolo[5,4-c]pyridine]",–
76,13,"Cc1cn2c(=O)[nH]nc2nc1N1CCc2nc(C3CCC3)sc2C1 [Compound 66, 7-(2-cyclobutyl-6,7-dihydrothiazolo[5,4-c]pyridin-5(4H)-yl)-6-methyl-[1,2,4]triazolo[4,3-a]pyrimidin-3(2H)-one]",–
71,4,"Cc1cn2c(=O)n(C)nc2nc1N1CCc2nc(C3CCC3)sc2C1 [Compound 67, 7-(2-cyclobutyl-6,7-dihydrothiazolo[5,4-c]pyridin-5(4H)-yl)-2,6-dimethyl-[1,2,4]triazolo[4,3-a]pyrimidin-3(2H)-one]",–
97,40,"Cc1c(N2CCc3nc(C4(C)CC4)sc3C2)nc2n[nH]c(=O)n2c1C [Compound 68, 5,6-dimethyl-7-(2-(1-methylcyclopropyl)-6,7-dihydrothiazolo[5,4-c]pyridin-5(4H)-yl)-[1,2,4]triazolo[4,3-a]pyrimidin-3(2H)-one]",–
88,18,"Cc1c(N2CCc3nc(C4(F)CC4)sc3C2)nc2n[nH]c(=O)n2c1C [Compound 69, 7-(2-(1-fluorocyclopropyl)-6,7-dihydrothiazolo[5,4-c]pyridin-5(4H)-yl)-5,6-dimethyl-[1,2,4]triazolo[4,3-a]pyrimidin-3(2H)-one]",–
91,5,"Cc1c(N2CCc3nc(C4CC4)sc3C2)nc2n[nH]c(=O)n2c1C [Compound 72, 7-(2-cyclopropyl-6,7-dihydrothiazolo[5,4-c]pyridin-5(4H)-yl)-5,6-dimethyl-[1,2,4]triazolo[4,3-a]pyrimidin-3(2H)-one]",–
91,12,"Cc1c(N2CCc3nc(C4CC4)sc3C2)nc2nn(CC3(C#N)CC3)c(=O)n2c1C [Compound 73, 1-((7-(2-cyclopropyl-6,7-dihydrothiazolo[5,4-c]pyridin-5(4H)-yl)-5,6-dimethyl-3-oxo-[1,2,4]triazolo[4,3-a]pyrimidin-2(3H)-yl)methyl)cyclopropane-1-carbonitrile]",–
94,7,"Cc1c(N2CCc3nc(C4CC4)sc3C2)nc2nn(CC3CC3(F)F)c(=O)n2c1C (stereo not shown) [Compound 74, 7-(2-cyclopropyl-6,7-dihydrothiazolo[5,4-c]pyridin-5(4H)-yl)-2-((2,2-difluorocyclopropyl)methyl)-5,6-dimethyl-[1,2,4]triazolo[4,3-a]pyrimidin-3(2H)-one]",–
111,15,"Cc1c(N2CCc3nc(C4CC4)sc3C2)nc2nn(CC3CC3)c(=O)n2c1C [Compound 75, 7-(2-cyclopropyl-6,7-dihydrothiazolo[5,4-c]pyridin-5(4H)-yl)-2-(cyclopropylmethyl)-5,6-dimethyl-[1,2,4]triazolo[4,3-a]pyrimidin-3(2H)-one]",–
105,87,"Cc1c(N2CCc3nc(C4CC4)sc3C2)nc2nn(CC3CC(F)(F)C3)c(=O)n2c1C [Compound 76, 7-(2-cyclopropyl-6,7-dihydrothiazolo[5,4-c]pyridin-5(4H)-yl)-2-((3,3-difluorocyclobutyl)methyl)-5,6-dimethyl-[1,2,4]triazolo[4,3-a]pyrimidin-3(2H)-one]",–
121,9,"Cc1c(N2CCc3nc(C4CC4)sc3C2)nc2nn(C)c(=O)n2c1C [Compound 77, 7-(2-cyclopropyl-6,7-dihydrothiazolo[5,4-c]pyridin-5(4H)-yl)-2,5,6-trimethyl-[1,2,4]triazolo[4,3-a]pyrimidin-3(2H)-one]",–
109,18,"Cc1c(N2CCc3nc(C4(F)CC4)sc3C2)nc2nn(CC3CC3)c(=O)n2c1C [Compound 78, 2-(cyclopropylmethyl)-7-(2-(1-fluorocyclopropyl)-6,7-dihydrothiazolo[5,4-c]pyridin-5(4H)-yl)-5,6-dimethyl-[1,2,4]triazolo[4,3-a]pyrimidin-3(2H)-one]",–
–,–,"Cc1nnc2sc(C(=O)NCc3ccc(S(=O)(=O)C(F)(F)F)cc3)c(N)c2c1C [VU0467154, reference compound]",52.7

SMILES,Emax at 30 µM (Human M4) [%],EC50 (Human M4) [nM],percent reversal of amphetamine-induced hyperlocomotion (male Sprague-Dawley rats) [%]
"[2H]C([2H])([2H])n1nc2nc(N3CCc4nc(C5(F)CC5)sc4C3)c(C)c(C)n2c1=O [Compound 71, 7-(2-(1-fluorocyclopropyl)-6,7-dihydrothiazolo[5,4-c]pyridin-5(4H)-yl)-5,6-dimethyl-2-(methyl-d3)-[1,2,4]triazolo[4,3-a]pyrimidin-3(2H)-one]",83,7,–

# Reference: patent US12139498B1, “Positive allosteric modulators of the muscarinic acetylcholine receptor M4” (Vanderbilt University, priority 2023, dated 2024)
